Where “and” joins values, the source holds several entries; their conditions need not be identical. Equal entries are not always repeated.

These results are taken from patent US20200289434A1, “RAPIDLY IMPROVING ENDOTHELIAL FUNCTION, REDUCING ARTERIAL STIFFNESS AND REVERSING CALCIFICATION OF BLOOD VESSELS BY ADMINISTERING VITAMIN K” (KAYDENCE PHARMA AS, priority 2019, published 2020).

The subject of one data set is matrix gla protein (MGP). Nature of the data set: Clinical study: blood analysis of matrix gla protein carboxylation. In kind it is in vivo, human. As to conditions: kidney transplant patients, 360 ug/day, 8 weeks. As for the experimental part: Participants were enrolled in a clinical trial in which the effects of vitamin K2 were determined for patients who had recently undergone a kidney transplant. At the beginning of the study, patients were subjected to a non-invasive pulse wave velocity measurement to measure arterial stiffness/flexibility, as well as blood analysis. The study participants were then instructed to receive a specific daily dose of MenaQ7 vitamin K2 menaquinone-7 (360 ug/day) for a total of 8 weeks. At the end of 8 weeks, patients were again examined with a follow-up examination, a non-invasive pulse wave velocity measurement and blood analysis and drug treatment was discontinued.
As part of the blood analysis, carboxylated matrix gla protein (MGP) was measured as a direct measure of vitamin K2 activity. The carboxylated MGP inhibits calcification of blood vessels and Vitamin K2 stimulates carboxylation of MGP.

Data set [1] relates to ApoE/LDLR−/− mice. The data set can be described thus: Example 2: MRI-based assessment of NO-dependent vasodilatation in BCA and LCA after acetylcholine. It counts as in vivo. As to conditions: two months, 6-month old mice. The protocol:
Endpoint assays: Magnetic resonance imaging (MRI)-based assessment of nitric oxide (NO)-dependent vasodilatation in brachiocephalic (BCA) and left common carotid artery (LCA) after acetylcholine (Ach) administration—by MRI 9.4T scanner, total time of measurements: 114 h (1.5 h per animal), acetylcholine (Ach, 16.6 mg/kg b.w.)
Studies were performed on 4-month old female ApoE/LDLR−/− mice, the model initially described by Ishibashi S, Herz J, Maeda N, Goldstein J, Brown M. The two-receptor model of lipoprotein clearance: tests of the hypothesis in “knockout” mice lacking the low density lipoprotein receptor, apolipoprotein E, or both proteins. Proc Natl Acad Sci USA 1994; 10:4431-5., and extensively characterized in previous studies, [see Kostogrys R B, Franczyk-Zarow M, Gasior-Glogowska M, Kus E, Jasztal A, Wrobel T P, et al. Anti-atherosclerotic effects of pravastatin in brachiocephalic artery in comparison with en face aorta and aortic roots in ApoE/LDLR−/− mice. Pharmacol Reports 2017; 69:112-8. doi:10.1016/j.pharep.2016.09.014; Tyrankiewicz U, Skorka T, Orzylowska A, Jablonska M, Jasinski K, Jasztal A, et al. Comprehensive MRI for the detection of subtle alterations in diastolic cardiac function in apoE/LDLR−/− mice with advanced atherosclerosis. NMR Biomed 2016; 29:833-40. doi:10.1002/nbm.3524; Mateuszuk L, Jasztal A, Maslak E, Gasior-Glogowska M, Baranska M, Sitek B, et al. Antiatherosclerotic Effects of 1-Methylnicotinamide in Apolipoprotein E/Low-Density Lipoprotein Receptor-Deficient Mice: A Comparison with Nicotinic Acid. J Pharmacol Exp Ther 2016; 356:514-24. doi:10.1124/jpet.115.228643; Wrobel T P, Marzec K M, Chlopicki S, Maślak E, Jasztal A, Franczyk-Żarów M, et al., Effects of Low Carbohydrate High Protein (LCHP) diet on atherosclerotic plaque phenotype in ApoE/LDLR−/− mice: FT-IR and Raman imaging. […] End-diastolic volumes of BCA and LCA were analyzed using ImageJ software (1.46r NIH Bethesda, Md., USA) and scripts written in Matlab (MathWorks, Natick, Mass., USA) (FIG. 1A).

For data set [2], the system named is ApoE/LDLR−/− mice. Nature of the data set: Example 2: histological assessment of plaque size, composition and vessel wall area in BCA. In kind it is in vivo. As to conditions: two months. From the text: Plaque size and composition as well as vessel wall area (VWA) in BCA-Histological assessment, cross-section method, BCA cross-sections: total 13000 slides, Photographed: 1214 slides
For the determination of atherosclerotic plaque area and composition BCA was dissected, fixed in 4% buffered formalin and embedded in paraffin. 5 μm-thick serial sections of BCA were collected from proximal, middle and distal parts of artery. Originally developed staining with Unna's orcein combined with Martius, Scarlet and Blue trichrome (OMSB), was applied on every tenth section (50 μm interval between each section) for visualization of collagen, elastin, fibrin, red blood cells and vascular smooth muscle cells within atherosclerotic plaque. The areas of particular components of atherosclerotic plaque as well as artery lumen and wall were determined after Columbus-based software processing (FIG. 1B) using a previously developed algorithm [Gajda M, Jasztal A, Banasik T, Jasek-Gajda E, Chlopicki S. Combined orcein and martius scarlet blue (OMSB) staining for qualitative and quantitative analyses of atherosclerotic plaques in brachiocephalic arteries in apoE/LDLR−/− mice. Histochem Cell Biol 2017. doi:10.1007/s00418-017-1538-81.

Data set [3] can be described thus: Example 3 second part: lipid profile, liver enzymes and blood count. As to conditions: eight weeks.

With `CC(C)=CCC/C(C)=C/CC/C(C)=C/CC/C(C)=C/CC/C(C)=C/CC/C(C)=C/CC/C(C)=C/CC1=C(C)C(=O)c2ccccc2C1=O` [MK-7, menaquinone-7], in the data set with matrix gla protein (MGP), the “mean reduction of levels of uncarboxylated MGP” value was found to be 55%. Further, the “volume change of BCA after Ach injection” value in the data set on ApoE/LDLR−/− mice [1] (high dose 10 mg/kg b.w./day) came out at 3.12%. The “volume change of LCA after Ach injection” value in the data set with ApoE/LDLR−/− mice [1] (high dose 10 mg/kg b.w./day) was 4.45%; in the data set with ApoE/LDLR−/− mice [1] (low dose 0.03 mg/kg b.w./day, listed as vitamin MK-7, 0.03 mg/kg/day), ~−3% and −3.92%. In addition, the “effect on plaque size” value in the data set with ApoE/LDLR−/− mice [2] (either low or high dose) is on record as “did not result in a beneficial effect”. Moreover, the “plaque and lumen area expressed as percent of IWA” value in the data set on ApoE/LDLR−/− mice [2] (either low or high dose) is recorded as “did not change”. In addition, the “internal wall area (IWA)” value with ApoE/LDLR−/− mice [2] (lower dose, not visible for entire vessel) is recorded as “decreased only in the middle part of the vessel”. For the same compound, in the data set on ApoE/LDLR−/− mice [2] (similarly after low and high dose), the “decrease in lipid core expressed as percent of plaque” value is “about 17%”. Besides, the “decrease in vessel wall area (VWA) of BCA” value in the data set with ApoE/LDLR−/− mice [2] (similarly for low (0.03) and high (10 mg/kg b.w./day) dose) is “about 5%”. Moreover, the “content of collagen in plaque” value with ApoE/LDLR−/− mice [2] (treated vs untreated groups) is “lack of differences”. Also, the MPV in data set [3] (0.03 mg/kg) turned out to be 5.20 ± 0.33; in data set [3] (10 mg/kg), 4.97 ± 0.19.
